{"source": "ChEMBL document CHEMBL1649268", "about": "“Comparative in vitro activity profile of oritavancin against recent gram-positive clinical isolates” (2009)", "tested_on": "Streptococcus", "assay": "Antimicrobial activity against erythromycin-susceptible Streptococcus Group F clinical isolates assessed as resistant isolates by broth microdilution method", "format": "functional", "data": [{"smiles": "CCC[C@@H]1C[C@@H](C(=O)N[C@@H]([C@H]2O[C@H](SC)[C@H](O)[C@@H](O)[C@H]2O)[C@H](C)Cl)N(C)C1", "note": "[CLINDAMYCIN]", "values": [{"measurement": "Activity", "result": 0, "unit": "%"}]}]}
